# Source: patent US5541179A, “Tropon-2-one piperazine carboxamides as serotonergic agents” (American Home Products Corporation, priority 1995, dated 1996)
# Tests used:
# [1] = molecular target: T1, 5-HT1A serotonin receptor (Rattus norvegicus, UniProt P19327); conditions: qualitative statement on reference standard; cited from earlier work
# T1 construct: from tissue
# T1 sequence (P19327 1-422): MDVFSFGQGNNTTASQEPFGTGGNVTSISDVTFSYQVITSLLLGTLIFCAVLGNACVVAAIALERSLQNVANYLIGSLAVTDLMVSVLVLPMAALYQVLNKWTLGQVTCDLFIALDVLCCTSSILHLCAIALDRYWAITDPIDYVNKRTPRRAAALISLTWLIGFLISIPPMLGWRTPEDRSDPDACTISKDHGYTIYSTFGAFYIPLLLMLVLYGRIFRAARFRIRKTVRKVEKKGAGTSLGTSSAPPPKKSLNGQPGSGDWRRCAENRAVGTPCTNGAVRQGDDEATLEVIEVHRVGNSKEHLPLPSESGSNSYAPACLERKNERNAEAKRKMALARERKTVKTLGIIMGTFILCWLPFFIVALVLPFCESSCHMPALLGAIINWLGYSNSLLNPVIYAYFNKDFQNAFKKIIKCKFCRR
# [2] = molecular target: T1, 5-HT1A serotonin receptor; assay: 5-HT1A receptor binding, displacement of [^3 H]8-OHDPAT (procedure of Hall et al., J. Neurochem. 44, 1685 (1985))
# Description: High affinity for the serotonin 5-HT1A receptor was established by testing the claimed compound's ability to displace [^3 H]8-OHDPAT (dipropylaminotetralin) from the 5-HT1A serotonin receptor following the procedure of Hall et al., J. Neurochem.
IC50 [2],SMILES,affinity for the 5-HT1A serotonin receptor subtype of the standard (in words) [1]
19.8 nM,"C[C@H](CN1CCN(c2cccccc2=O)CC1)Nc1ccccn1 [Example 2, (R)-2-{4-[2-(Pyridin-2-ylamino)-propyyl}-piperazin-1-yl}-cyclohepta-2,4,6trienone]",–
861 nM,"C[C@H](CN1CCN(c2cccccc2=O)CC1)N(C(=O)C1CC=CCC1)c1ccccn1 (stereo partly drawn) [Example 3, Cyclohex-3-enecarboxylic acid (R)-{1-methyl-2-[4-(7-oxo-cyclohepta-1,3,5-trienyl)-piperazin-1-yl]-ethyl}-(pyridin-2-yl)-amide]",–
351 nM,"C[C@H](CN1CCN(c2cccccc2=O)CC1)N(C(=O)C1CCCCC1)c1ccccn1 [Example 4, Cyclohexanecarboxylic acid (R)-{1-methyl-2-[4-(7-oxo-cyclohepta-1,3,5-trienyl)-piperazin-1-yl]-ethyl}-(pyrilin-2-yl)-amide]",–

# The remaining lines, values behind:
SMILES,IC50 [2],affinity for the 5-HT1A serotonin receptor subtype of the standard (in words) [1]
O=C1CC2(CCCC2)CC(=O)N1CCCCN1CCN(c2ncccn2)CC1 [Buspirone],–,potent affinity
"O=C(C(CCN1CCN(c2cccccc2=O)CC1)c1ccccc1)N1CCCCCC1 (centres unmarked) [Example 1, 2-[4-(4-Azepan-1-yl-4-oxo-3-phenyl-butyl)-piperazin-1-yl]-cyclohepta-2,4,6-trienone]",18.6 nM,–
